Results taken from US12459925B2, “Sulphonyl urea derivatives as NLRP3 inflammasome modulators” (priority 2017, dated 2025).
Like-named read-outs stand apart in the source and are kept apart here.

Tested on: IL-1β release upon NLRP3 activation in peripheral blood mononuclear cells (PBMC)
Assay: PBMC IC50 determination assay (IL-1β release, Protocol A ELISA / Protocol B HTRF)
Type: cell-based
Conditions: Homo sapiens
Method: The compounds of the present disclosure were tested for their inhibitory activity against IL-1β release upon NLRP3 activation in peripheral blood mononuclear cells (PBMC).
Isolated cells were seeded into the wells of a 96-well plate and incubated for 3 h with lipopolysaccharide (LPS). Following medium exchange, the compounds of the present disclosure were added (a single compound per well) and the cells were incubated for 30 min. Next, the cells were stimulated either with ATP (5 mM) or nigericin (10 μM) for 1 h and the cell culture media from the wells were collected for further analysis.
The release of IL1-β into the media was determined by a quantitative detection of IL-1β in the media using an IL-1β enzyme-linked immunosorbent assay (ELISA) Ready-SET-Go!, eBioscience cat. […] Subsequently, plates were blocked with blocking buffer for 1 h at room temperature (rt) and after washing with a buffer (PBS with 0.05% Tween-20) incubated with protein standard and culture media. […] Plates were washed and incubated with HRP-streptavidin for 30 min at rt and washed again. The signal was developed after addition of 3,3′,5,5′-tetramethylbenzidine-peroxidase (TMB) until colour appeared and the reaction was stopped by 2 M H2SO4. A microplate spectrophotometer (BioTek) was used to detect signals with 450 nm. The detection range of IL-1β ELISA was 2-150 ng/ml.
Isolated cells were seeded into the wells (280,000 cells/well) of a 96-well plate and incubated for 3 h with lipopolysaccharide (LPS, 1 μg/ml diluted 1000× from a 1 mg/ml stock solution). The compounds of the present disclosure were added (a single compound per well) and the cells were incubated for 30 min. Next, the cells were stimulated with ATP (5 mM final concentration diluted 20× from a 100 mM stock solution) for 1 h and the cell culture media from the wells were collected for further analysis.
The release of IL-1β into the media was determined by quantitative detection of IL-1β in the media using HTRF®, CisBio cat. No. 62HIL1BPEH. Briefly, cell culture supernatant were dispensed directly into the assay plate containing antibodies labelled with the HTRF® donor and acceptor. A microplate spectrophotometer (BMG) was used to detect signals at 655 nm and 620 nm. The detection range of IL-1β HTRF® was 39-6500 pg/ml.

[1] = PBMC primed with LPS 3 h, compound 30 min, stimulated with ATP (5 mM) or nigericin (10 μM) 1 h, IL-1β in media, read-out: Average PBMC IC50

Row | SMILES | IC50 [1] | IC50 (PBMC, read-out: Average PBMC IC50 (μM))
1 | CCCCc1cc(Cl)cc(NC(=O)NS(=O)(=O)N(c2cnn(C)c2)C2CCOCC2)c1 [Compound 115] | < 1 µM | 
2 | CCC(C)c1cc(Cl)cc(NC(=O)NS(=O)(=O)N(c2cnn(C)c2)C2CCOCC2)c1 (stereo not drawn) [Compound 105] | < 1 µM | 
3 | CCc1cc(NC(=O)NS(=O)(=O)N(c2cnn(C)c2)C2CCCN(C)C2)cc(C(F)(F)F)c1 (stereo not drawn) [Compound 97] | < 1 µM | 
4 | Cn1cc(N(CC2COC2)S(=O)(=O)NC(=O)Nc2c3c(cc4c2CCC4)CCC3)cn1 [Compound 16] | < 1 µM | 
5 | CN1CCC(CN(c2cnn(C)c2)S(=O)(=O)NC(=O)Nc2c3c(cc4c2CCC4)CCC3)CC1 [Compound 3] | 1 to 3 µM | 
6 | CCN1CCC(N(c2cnn(C)c2)S(=O)(=O)NC(=O)Nc2c3c(cc4c2CCC4)CCC3)CC1 [Compound 32] | < 1 µM | 
7 | CCOc1cc(NC(=O)NS(=O)(=O)N(c2cnn(C)c2)C2CCOCC2)cc(OCC)c1 [Compound 90] | 10 to 50 µM | 
8 | Cc1nn(C)c(C)c1N(C1CCN(C)CC1)S(=O)(=O)NC(=O)Nc1c2c(cc3c1CCC3)CCC2 [Compound 15] | 1 to 3 µM | 
9 | Cc1nn(C)cc1N(C1CCCN(C)C1)S(=O)(=O)NC(=O)Nc1c2c(cc3c1CCC3)CCC2 (stereo not drawn) [Compound 103] | < 1 µM | 
10 | Cn1cc(N(C2CC3(COC3)C2)S(=O)(=O)NC(=O)Nc2c3c(cc4c2CCC4)CCC3)cn1 [Compound 66] | 1 to 3 µM | 
11 | CC(C)n1cc(N(C2CCN(C)C2)S(=O)(=O)NC(=O)Nc2c3c(cc4c2CCC4)CCC3)cn1 (stereo not drawn) [Compound 56] | < 1 µM | 
12 | Cc1nn(C)c(C)c1N(C1CCOCC1)S(=O)(=O)NC(=O)Nc1c2c(cc3c1CCC3)CCC2 [Compound 11] | < 1 µM | 
13 | O=C(Nc1c2c(cc3c1CCC3)CCC2)NS(=O)(=O)N(c1cnn(CC(F)(F)F)c1)C1CCOCC1 [Compound 26] | < 1 µM | 
14 | Cn1cc(N(CCN2CCOCC2)S(=O)(=O)NC(=O)Nc2c3c(cc4c2CCC4)CCC3)cn1 [Compound 46] | < 1 µM | 
15 | CCN1CCCC(N(c2cnn(C)c2)S(=O)(=O)NC(=O)Nc2c3c(cc4c2CCC4)CCC3)C1 (stereo not drawn) [Compound 62] | < 1 µM | 
16 | CC(C)c1ncc(N(C2CCOCC2)S(=O)(=O)NC(=O)Nc2c3c(cc4c2CCC4)CCC3)cn1 [Compound 104] | < 1 µM | 
17 | CN1CCC(N(c2cnn(CC(F)(F)F)c2)S(=O)(=O)NC(=O)Nc2c3c(cc4c2CCC4)CCC3)CC1 [Compound 37] | < 1 µM | 
18 | Cc1noc(N(C2CCCN(C)C2)S(=O)(=O)NC(=O)Nc2c3c(cc4c2CCC4)CCC3)c1C (stereo not drawn) [Compound 116] | < 1 µM | 
19 | CN1CCC(N(c2cnn(CC#N)c2)S(=O)(=O)NC(=O)Nc2c3c(cc4c2CCC4)CCC3)CC1 [Compound 31] | < 1 µM | 
20 | CN1CCC(N(c2cnn(C3CC3)c2)S(=O)(=O)NC(=O)Nc2c3c(cc4c2CCC4)CCC3)CC1 [Compound 39] | < 1 µM | 
21 | Cn1ccc(N(C2CCOCC2)S(=O)(=O)NC(=O)Nc2c3c(cc4c2CCC4)CCC3)c1 [Compound 95] | < 1 µM | 

Row | SMILES | IC50 [1] | IC50 (PBMC, read-out: Average PBMC IC50 (μM))
22 | CN1CCC(N(c2cnn(C)c2)S(=O)(=O)NC(=O)Nc2c3c(cc4c2CCC4)CCC3)CC1=O (stereo not drawn) [Compound 47] | 1 to 3 µM | 
23 | CCn1cc(N(C2CCN(C)CC2)S(=O)(=O)NC(=O)Nc2c3c(cc4c2CCC4)CCC3)cn1 [Compound 7] | < 1 µM | 
24 | CC(C)Cc1cc(Cl)cc(NC(=O)NS(=O)(=O)N(c2cnn(C)c2)C2CCOCC2)c1 [Compound 98] | 1 to 3 µM | 
25 | CN1CCC(N(c2cn[nH]c2)S(=O)(=O)NC(=O)Nc2c3c(cc4c2CCC4)CCC3)CC1 [Compound 40] |  | 1 to 3 µM
26 | Cc1cc(N(C2CCOCC2)S(=O)(=O)NC(=O)Nc2c3c(cc4c2CCC4)CCC3)on1 [Compound 18] | < 1 µM | 
27 | CN1CCCC1CN(c1cnn(C)c1)S(=O)(=O)NC(=O)Nc1c2c(cc3c1CCC3)CCC2 (stereo not drawn) [Compound 68] | < 1 µM | 
28 | CC(C)N1CCCC(N(c2cnn(C)c2)S(=O)(=O)NC(=O)Nc2c3c(cc4c2CCC4)CCC3)C1 (stereo not drawn) [Compound 52] | < 1 µM | 
29 | CC(C)n1cc(N(C2CCOCC2)S(=O)(=O)NC(=O)Nc2c3c(cc4c2CCC4)CCC3)cn1 [Compound 4] | < 1 µM | 
30 | Cn1cc(N(CCN2CCC2)S(=O)(=O)NC(=O)Nc2c3c(cc4c2CCC4)CCC3)cn1 [Compound 63] | < 1 µM | 
31 | Cc1cc(N(C2CCOCC2)S(=O)(=O)NC(=O)Nc2c3c(cc4c2CCC4)CCC3)sn1 [Compound 113] | < 1 µM | 
32 | Cn1cc(N(C2CCN(CC(F)(F)F)CC2)S(=O)(=O)NC(=O)Nc2c3c(cc4c2CCC4)CCC3)cn1 [Compound 65] | 1 to 3 µM | 
33 | Cc1ncc(N(C2CCOCC2)S(=O)(=O)NC(=O)Nc2c3c(cc4c2CCC4)CCC3)c(C)n1 [Compound 100] | 1 to 3 µM | 
34 | O=C(Nc1c2c(cc3c1CCC3)CCC2)NS(=O)(=O)N(c1cnn(CC(F)F)c1)C1CCOCC1 [Compound 35] | < 1 µM | 
35 | CN1CC(N(c2cnn(C)c2)S(=O)(=O)NC(=O)Nc2c3c(cc4c2CCC4)CCC3)CC1=O (stereo not drawn) [Compound 83] | 1 to 3 µM | 
36 | CCc1cc(CC)cc(NC(=O)NS(=O)(=O)N(c2cnn(C)c2)C2CCOCC2)c1 [Compound 70] | 3 to 10 µM | 
37 | COc1cc(Cl)cc(NC(=O)NS(=O)(=O)N(c2cnn(C)c2)C2CCOCC2)c1 [Compound 93] | < 1 µM | 
38 | CC(C)c1cc(NC(=O)NS(=O)(=O)N(c2cnn(C)c2)C2CCN(C)CC2)cc(C(C)C)c1 [Compound 49] | < 1 µM | 
39 | O=C(Nc1c2c(cc3c1CCC3)CCC2)NS(=O)(=O)N(c1cncnc1)C1CCOCC1 [Compound 17] | < 1 µM | 
40 | CCc1cc(NC(=O)NS(=O)(=O)N(c2cnn(C)c2)C2CCOCC2)cc(C(F)(F)F)c1 [Compound 75] | < 1 µM | 
41 | CC(C)c1cc(Cl)cc(NC(=O)NS(=O)(=O)N(c2cnn(C)c2)C2CCCN(C)C2)c1 (stereo not drawn) [Compound 101] | < 1 µM | 
42 | CCc1cc(CC)cc(NC(=O)NS(=O)(=O)N(c2cnn(C)c2)C2CCN(C)CC2)c1 [Compound 53] | < 1 µM | 

Row | SMILES | IC50 [1] | IC50 (PBMC, read-out: Average PBMC IC50 (μM))
43 | Cn1ccc(N(C2CCOCC2)S(=O)(=O)NC(=O)Nc2c3c(cc4c2CCC4)CCC3)n1 [Compound 9] | < 1 µM | 
44 | COCn1cc(N(C2CCN(C)CC2)S(=O)(=O)NC(=O)Nc2c3c(cc4c2CCC4)CCC3)cn1 [Compound 28] | < 1 µM | 
45 | Cn1cc(N(C2CCOCC2)S(=O)(=O)NC(=O)Nc2cc(Cl)cc(OC(F)(F)F)c2)cn1 [Compound 92] | 1 to 3 µM | 
46 | COCCn1cc(N(C2CCOCC2)S(=O)(=O)NC(=O)Nc2c3c(cc4c2CCC4)CCC3)cn1 [Compound 29] | < 1 µM | 
47 | O=C(Nc1c2c(cc3c1CCC3)CCC2)NS(=O)(=O)N(c1cnn(C2COC2)c1)C1CCOCC1 [Compound 41] | < 1 µM | 
48 | Cn1cc(N(C2CCOCC2)S(=O)(=O)NC(=O)Nc2c3c(cc4c2CCC4)CCC3)cn1 [Compound 1] | < 1 µM | 
49 | CN1CCC(N(c2cnn(C3COC3)c2)S(=O)(=O)NC(=O)Nc2c3c(cc4c2CCC4)CCC3)CC1 [Compound 42] | < 1 µM | 
50 | CN1CCCC(N(c2cnn(C)c2)S(=O)(=O)NC(=O)Nc2cc(Cl)cc(Cl)c2)C1 (stereo not drawn) [Compound 91] | < 1 µM | 
51 | Cc1ncc(N(C2CCOCC2)S(=O)(=O)NC(=O)Nc2c3c(cc4c2CCC4)CCC3)cn1 [Compound 86] | < 1 µM | 
52 | CN1CCC(N(c2cnn(C3CCC3)c2)S(=O)(=O)NC(=O)Nc2c3c(cc4c2CCC4)CCC3)CC1 [Compound 44] | < 1 µM | 
53 | Cc1c(N(C2CCOCC2)S(=O)(=O)NC(=O)Nc2c3c(cc4c2CCC4)CCC3)cnn1C [Compound 10] | < 1 µM | 
54 | Cn1ncc(N(C2CCOCC2)S(=O)(=O)NC(=O)Nc2c3c(cc4c2CCC4)CCC3)n1 [Compound 96] | < 1 µM | 
55 | Cc1nn(C)cc1N(C1CCOCC1)S(=O)(=O)NC(=O)Nc1c2c(cc3c1CCC3)CCC2 [Compound 99] | < 1 µM | 
56 | Cn1cc(N(C2CCOC(C)(C)C2)S(=O)(=O)NC(=O)Nc2c3c(cc4c2CCC4)CCC3)cn1 (stereo not drawn) [Compound 79] | < 1 µM | 
57 | C[C@H]1CC(N(c2cnn(C)c2)S(=O)(=O)NC(=O)Nc2c3c(cc4c2CCC4)CCC3)CCO1 (stereo partly drawn) [Compound 84] | < 1 µM | 
58 | CCc1cc(Cl)cc(NC(=O)NS(=O)(=O)N(c2cnn(C)c2)C2CCOCC2)c1 [Compound 77] | 1 to 3 µM | 
59 | Cn1cc(N(C2CCOCC2)S(=O)(=O)NC(=O)Nc2cc(Cl)cc(Cl)c2)cn1 [Compound 72] | 1 to 3 µM | 
60 | CN1CCCC(N(c2cnn(C)c2)S(=O)(=O)NC(=O)Nc2c3c(cc4c2CCC4)CCC3)C1 (stereo not drawn) [Compound 23] | < 1 µM | 
61 | CC1CCCC(C)C1NC(=O)NS(=O)(=O)N(c1cnn(C)c1)C1CCOCC1 (stereo not drawn) [Compound 88] | < 1 µM | 
62 | CN1CCC(N(c2cnn(CC(F)F)c2)S(=O)(=O)NC(=O)Nc2c3c(cc4c2CCC4)CCC3)CC1 [Compound 36] | < 1 µM | 
63 | CN1CCCC(N(c2cnn(C)c2)S(=O)(=O)NC(=O)Nc2c3c(cc4c2CCC4)CCC3)CC1 (stereo not drawn) [Compound 67] | < 1 µM | 
